# From PMC10242237 (Scientific Reports, 2023)
# Like-named read-outs stand apart in the source and are kept apart here.
# What was measured:
# SARS-CoV-2 M^pro = SARS-CoV-2 M^pro (Severe acute respiratory syndrome coronavirus 2, UniProt P0DTD1); assay: biochemical; conditions: for inhibition at 0.1 µM: read-out: inhibition [%] SARS-CoV-2 Mpro, [I] = 100 nM; for inhibition at 1 µM: read-out: inhibition [%] SARS-CoV-2 Mpro, [I] = 1 µM
# SARS-CoV-2 PL^pro [1] = target: T1, SARS-CoV-2 PL^pro (Severe acute respiratory syndrome coronavirus 2, UniProt P0DTD1); assay: biochemical; conditions: for inhibition at 1 µM: 0.5 h, read-out: inhibition [%] SARS-CoV-2 PLpro
# [2] = target: SARS-CoV-2 nsp14 N7-MTase (Severe acute respiratory syndrome coronavirus 2, UniProt P0DTD1); assay: Py-FLINT fluorescence assay of nsp14 N7-MTase; assay type: biochemical; conditions: for SARS-CoV-2 nsp14 Hill coefficient p: four-parameter dose-response fit, variable Hill slope
# Description: To determine their IC50 values, we used the previously described fluorescence assay Py-FLINT[42],[67]. To this end, the Py-FLINT probe (1 μM) was incubated with SAM cosubstrate (20 μM), nsp14 enzyme (40 nM), and half-log inhibitor dilutions in 50 mM Tris–HCl pH 7.5 buffer at 30 °C. The reaction progress was monitored in 96-well cells by registering the fluorescence intensity signal with a 1-min time interval. Using the initial reaction course, the values of initial rates V were calculated. To calculate IC50 values from the obtained dependences of initial rates versus inhibitor concentration, we fitted a four-parameter dose–response equation, assuming a variable Hill slope p (Table 3, Fig. S2).
# The Py-FLINT probe (1 μM) was incubated with SAM cosubstrate (20 μM), nsp14 (40 nM), and an inhibitor (half-log dilutions logCinh < − 2.5; 2 >). […] Initial rates V were calculated by fitting a linear curve to the first 10 points (10 min). To the obtained dependences V(Cinh) the following four-parameter dose–response equation was fitted:1 V/V0=A1+A2-A1/1+Cinh/IC50^p, where A1 and A2 are the bottom and top asymptotes, respectively; Cinh the inhibitor concentration; p is the Hill coefficient, and V/V0 is the ratio of the initial reaction rate with the inhibitor to that without the inhibitor. For curve fitting and IC50 calculations we used GraphPad Prism software.
# A549 human cell line = conditions: cited from earlier work
# Vero E6 cells = assay: Cytotoxicity assay (XTT) in Vero E6 cells; assay type: cell-based; conditions: Vero E6 cells, three days, XTT
# Description: (§1) Cytotoxicity was evaluated by incubating two-fold serial dilutions of each compound with Vero E6 cells.
# SARS-CoV-2 [3] = assay: RNA reduction-based anti-SARS-CoV-2 assay (RT-qPCR) in Vero E6 cells; conditions: read-out: EC50 RNA, two days, RT-qPCR of medium
# SARS-CoV-2 [4] = assay: Cytopathic effect (CPE)-based anti-SARS-CoV-2 assay in Vero E6 cells; conditions: read-out: EC50 CPE, three days, XTT
# [5] = phase I clinical trial, humans; cited from earlier work
# SARS-CoV-2 PL^pro [6] = target: T1, SARS-CoV-2 PL^pro; conditions: Flip-GFP assay, 293T-ACE2 cells; cited from earlier work
# M^pro [7] = conditions: in vitro FRET substrate assay, recombinant enzyme; cited from earlier work
# [8] = Cytotoxicity assay (XTT) in Vero E6 cells; assay type: cell-based; conditions: African green monkey
# Description: as §1
# M^pro [9] = conditions: Protease-Glo luciferase and Flip-GFP assays; cited from earlier work
# [10] = [E] = 100 nM, [I] = 1 µM, [S] = 10 µM
Compound,inhibition at 0.1 µM (SARS-CoV-2 M^pro),inhibition at 1 µM (SARS-CoV-2 PL^pro [1]),inhibition [%] SARS-CoV-2 PLpro (SARS-CoV-2 PL^pro [1]; [10]),inhibition at 1 µM (SARS-CoV-2 M^pro),EC50 (SARS-CoV-2 [4]),also measured
O=c1c2ccccc2[se]n1-c1ccccc1F [Compound 1],72.3 ± 2.3%,54.6 ± 2%,–,–,–,–
O=c1c2ccccc2[se]n1-c1ccccc1Cl [Compound 2],66.5 ± 3.4%,56.7 ± 4.1%,–,–,–,–
O=c1c2ccccc2[se]n1-c1ccccc1Br [Compound 3],73.3 ± 4.5%,59.2 ± 4.5%,–,–,–,SARS-CoV-2 nsp14 Hill coefficient p [2]: 3.12 ± 0.47
Cc1ccccc1-n1[se]c2ccccc2c1=O [Compound 4],63.4 ± 2.7%,–,55.8 ± 5.2%,–,–,–
O=c1c2ccccc2[se]n1-c1ccccc1C(F)(F)F [Compound 5],62.8 ± 0.7%,–,44.4 ± 2.5%,–,–,–
O=c1c2ccccc2[se]n1-c1ccccc1[N+](=O)[O-] [Compound 6],38.5 ± 2.3%,–,46.6 ± 2.3%,–,–,–
"O=c1c2ccccc2[se]n1-c1ncccc1O [Compound 7, 2-(3-hydroxypyridin-2-yl)-1,2-benzisoselenazol-3(2H)-one]",55.9 ± 4.1%,84.4 ± 2.1%,–,–,–,melting point: 228 to 229 °C (dec.); SARS-CoV-2 nsp14 Hill coefficient p [2]: 4.08 ± 1.33
COc1cccc(-n2[se]c3ccccc3c2=O)c1 [Compound 8],59.9 ± 4.8%,52.6 ± 1.4%,–,–,–,–
O=c1c2ccccc2[se]n1-c1ccc(C(F)(F)F)cc1 [Compound 9],71 ± 9.3%,48 ± 3.6%,–,–,–,–
O=c1c2ccccc2[se]n1-c1ccc([N+](=O)[O-])cc1 [Compound 10],82.9 ± 1.7%,56.2 ± 4.2%,–,–,–,SARS-CoV-2 nsp14 Hill coefficient p [2]: 1.73 ± 0.35
O=c1c2ccccc2[se]n1-c1ccc(I)cc1 [Compound 11],71.6 ± 5.6%,48 ± 2.1%,–,–,–,melting point: 203 to 204 °C
CC(=O)c1ccc(-n2[se]c3ccccc3c2=O)cc1 [Compound 12],55.1 ± 2.7%,–,59.0 ± 3.0%,–,–,–
CC(=O)Nc1ccc(-n2[se]c3ccccc3c2=O)cc1 [Compound 13],62 ± 1%,57.3 ± 1.8%,–,–,–,–
O=c1c2ccccc2[se]n1-c1ccc(F)cc1F [Compound 14],64.8%,–,58.1 ± 3.9%,–,–,–
O=c1c2ccccc2[se]n1-c1ccc(Cl)cc1F [Compound 15],77.1 ± 2.8%,–,55.7 ± 3.1%,–,–,–
COc1ccc(-n2[se]c3ccccc3c2=O)c(OC)c1 [Compound 16],59 ± 1.5%,64.3 ± 3.8%,–,–,–,"melting point: 238 to 240 °C; SARS-CoV-2 nsp14 Hill coefficient p [2]: 2.36 ± 0.32; toxicity in A549 cells, times lower in comparison with ebselen (A549 human cell line): 10 times"
"O=c1c2ccccc2[se]n1-c1cc(Cl)ccc1F [Compound 17, 2-(5-chloro-2-fluorophenyl)-1,2-benzisoselenazol-3(2H)-one]",82.3 ± 2.1%,47.2 ± 1%,–,–,–,SARS-CoV-2 nsp14 Hill coefficient p [2]: 2.15 ± 0.28
O=c1c2ccccc2[se]n1-c1cc(Cl)ccc1Cl [Compound 18],72.3 ± 3.1%,–,47.8 ± 0.9%,–,–,–

Compound,inhibition at 0.1 µM (SARS-CoV-2 M^pro),inhibition at 1 µM (SARS-CoV-2 PL^pro [1]),inhibition [%] SARS-CoV-2 PLpro (SARS-CoV-2 PL^pro [1]; [10]),inhibition at 1 µM (SARS-CoV-2 M^pro),EC50 (SARS-CoV-2 [4]),also measured
Cc1ccc(Cl)c(-n2[se]c3ccccc3c2=O)c1 [Compound 19],61.8 ± 0.5%,–,57.6 ± 3.0%,–,–,–
Cc1ccc(Cl)cc1-n1[se]c2ccccc2c1=O [Compound 20],69 ± 3.5%,62.6 ± 1.7%,–,–,–,–
Cc1c(Cl)cccc1-n1[se]c2ccccc2c1=O [Compound 21],70.6 ± 1.4%,58.3 ± 2.4%,–,–,–,melting point: 282 to 283 °C
Cc1cc(-n2[se]c3ccccc3c2=O)ccc1Cl [Compound 22],72.2 ± 0.8%,43.1 ± 2.1%,–,–,–,–
COc1ccc(-n2[se]c3ccccc3c2=O)cc1OC [Compound 23],60.6 ± 0.4%,58 ± 1.9%,–,–,–,–
O=C(Nc1ccccc1F)c1ccccc1[Se][Se]c1ccccc1C(=O)Nc1ccccc1F [Compound 25],33 ± 5.5%,–,82.1 ± 2.7%,100%,3.1 ± 0.36 µM,IC50 [2]: 0.12 ± 0.01 µM; CC50 (Vero E6 cells): ~60 µM; EC50 (SARS-CoV-2 [3]): 1.9 ± 0.15 µM
O=C(Nc1ccccc1C(F)(F)F)c1ccccc1[Se][Se]c1ccccc1C(=O)Nc1ccccc1C(F)(F)F [Compound 26],34.5 ± 4.4%,–,61.3 ± 2.2%,78.1 ± 2.4%,37 ± 2.4 µM,IC50 [2]: 1.82 ± 0.32 µM; CC50 (Vero E6 cells): > 50 µM
"O=C(Nc1cccc(F)c1)c1ccccc1[Se][Se]c1ccccc1C(=O)Nc1cccc(F)c1 [Compound 27, bis[2-(3-fluorophenylcarbamoyl)]phenyl diselenide]",44 ± 4.1%,–,90.1 ± 5.4%,100%,0.7 ± 0.13 µM,IC50 [2]: 0.18 ± 0.04 µM; CC50 (Vero E6 cells): > 50 µM; EC50 (SARS-CoV-2 [3]): 1.5 ± 0.15 µM
COc1cccc(NC(=O)c2ccccc2[Se][Se]c2ccccc2C(=O)Nc2cccc(OC)c2)c1 [Compound 28],37 ± 4.3%,–,81.9 ± 0.8%,100%,7.6 ± 0.71 µM,IC50 [2]: 0.58 ± 0.04 µM; CC50 (Vero E6 cells): > 50 µM; EC50 (SARS-CoV-2 [3]): 2.7 ± 0.23 µM
O=C(Nc1ccc(C(F)(F)F)cc1)c1ccccc1[Se][Se]c1ccccc1C(=O)Nc1ccc(C(F)(F)F)cc1 [Compound 29],14 ± 2.4%,–,61.3 ± 3.4%,100%,29 ± 3.5 µM,IC50 [2]: 4.5 ± 1.3 µM; CC50 (Vero E6 cells): > 50 µM
O=C(Nc1ccc(Cl)cc1F)c1ccccc1[Se][Se]c1ccccc1C(=O)Nc1ccc(Cl)cc1F [Compound 30],27.4%,–,75.1 ± 0.4%,49.6 ± 2.7%,1.1 ± 0.15 µM,IC50 [2]: 11.5 ± 1.4 µM; CC50 (Vero E6 cells): > 50 µM; EC50 (SARS-CoV-2 [3]): 1.9 ± 0.1 µM
COc1ccc(NC(=O)c2ccccc2[Se][Se]c2ccccc2C(=O)Nc2ccc(OC)cc2OC)c(OC)c1 [Compound 31],50 ± 1%,–,76.6 ± 2.4%,100%,7.1 ± 0.84 µM,IC50 [2]: 0.91 ± 0.1 µM; CC50 (Vero E6 cells): > 50 µM; EC50 (SARS-CoV-2 [3]): 2.8 ± 0.31 µM
Cc1ccc(Cl)cc1NC(=O)c1ccccc1[Se][Se]c1ccccc1C(=O)Nc1cc(Cl)ccc1C [Compound 32],55.4 ± 3.8%,–,72.4 ± 1.7%,100%,22 ± 2.5 µM,IC50 [2]: 12.1 ± 1.1 µM; CC50 (Vero E6 cells): > 50 µM
Cc1cc(NC(=O)c2ccccc2[Se][Se]c2ccccc2C(=O)Nc2ccc(Cl)c(C)c2)ccc1Cl [Compound 33],48.7 ± 5.4%,–,72.1 ± 3.2%,92 ± 0.3%,20 ± 1.4 µM,IC50 [2]: 1.06 ± 0.05 µM; CC50 (Vero E6 cells): > 50 µM; EC50 (SARS-CoV-2 [3]): 1.7 ± 0.08 µM
O=C(Nc1c(F)cccc1Cl)c1ccccc1[Se][Se]c1ccccc1C(=O)Nc1c(F)cccc1Cl [Compound 34],32 ± 2.1%,–,60.2 ± 1.7%,43.1 ± 3%,9.3 ± 0.92 µM,IC50 [2]: 2.1 ± 0.58 µM; CC50 (Vero E6 cells): > 50 µM; EC50 (SARS-CoV-2 [3]): 3.4 ± 0.2 µM
"O=c1c2ccccc2[se]n1-c1ccccc1 [Ebselen, 2-phenylbenzisoselenazol-3(2H)-one, reference compound]",–,–,–,100%,34 ± 7.9 µM,"tolerated single dose [5]: 1600 mg; SARS-CoV-2 PL^pro inhibition in cells (SARS-CoV-2 PL^pro [6]): no SARS-CoV-2 PL^pro inhibition; SARS-CoV-2 nsp14 Hill coefficient p [2]: 2.74 ± 0.47; M^pro inhibition in presence of reducing agent (M^pro [7]): does not inhibit; CC50 at 3 days [8]: ~30 µM; inhibition at 0.1 µM (SARS-CoV-2 M^pro; [E] = 100 nM, [I] = 100 nM, [S] = 50 µM): 57.6 ± 1.3%; M^pro inhibition in cells (M^pro [9]): no M^pro inhibition; inhibition at 1 µM (SARS-CoV-2 PL^pro [1]; [10]): 65.4 ± 2.4%"
"CCC(CC)COC(=O)[C@H](C)N[P@](=O)(OC[C@H]1O[C@@](C#N)(c2ccc3c(N)ncnn23)[C@H](O)[C@@H]1O)Oc1ccccc1 [Remdesivir, reference compound]",–,–,–,–,0.1 ± 0.01 µM,"CC50 at 3 days ([8]; Vero E6 cells, three days, XTT, read-out: CC50): > 50 µM; EC50 (SARS-CoV-2 [3]): 0.66 ± 0.06 µM"
